Data as given in the OligoGym collection.
Values joined by “and” are separate entries in the source; they are usually repeats but may differ in a detail not shown here. Equal entries are not always repeated. After the bases stand the sugars from the 5' end (letter, count) and the backbone: PS all phosphorothioate, else s phosphorothioate and o phosphodiester by linkage. Methylation of C is not given here. e = 2'-O-(2-methoxyethyl) (MOE); k = constrained ethyl (cEt); d = 2'-deoxy (DNA); m = 2'-O-methyl

Target: HSD17B13
Conditions: ASO, HepaRG

Sequence	target mRNA inhibition (1 µM)	other results
TACATTCTTCAGGTGT (sugars k3 d10 k3, PS)	61%	–
TACCAAACTTGCCCAT (sugars k3 d10 k3, PS)	33%	–
TACCAATATGGGATGA (sugars k3 d10 k3, PS)	1%	–
TACCUCTAAGTTAGCC (sugars k3 d1 m1 d8 k3, PS)	13%	–
TACGACAGGTCATCTT (sugars k3 d10 k3, PS)	58%	–
TACGACTTCATCTGTC (sugars k3 d10 k3, PS)	29%	–
TACGACTTCCTTCTAA (sugars k3 d10 k3, PS)	67%	–
TACGCATGCGCAGTGA (sugars k3 d10 k3, PS)	60%	–
TACTAATGTCCAAGGA (sugars k3 d10 k3, PS)	77%	target mRNA inhibition (0.02 µM): 4%; target mRNA inhibition (0.078 µM): 0%; target mRNA inhibition (0.313 µM): 38%; target mRNA inhibition (1.25 µM): 64%; target mRNA inhibition (5 µM): 75%
TACTCTAGGAGATATA (sugars k3 d10 k3, PS)	33%	–
TACTTACCAATATGGG (sugars k3 d10 k3, PS)	13%	–
TACTTTTAGGGAGGTA (sugars k3 d10 k3, PS)	28%	–
TACTUGAACAGTCTTA (sugars k3 d1 m1 d8 k3, PS)	38%	–
TAGAAACTGCTCCTCA (sugars k3 d10 k3, PS)	32%	–
TAGAATAGTCTTCAGC (sugars k3 d1 m1 d8 k3, PS)	30%	–
TAGAGTCGGTCACCTT (sugars k3 d1 m1 d8 k3, PS)	55%	–
TAGAGTTGCACCGTTT (sugars k3 d10 k3, PS)	58%	–

Sequence	target mRNA inhibition (1 µM)	other results
TAGCAGCTAAAATCCA (sugars k3 d10 k3, PS)	66%	–
TAGCCAGTACAGTTCC (sugars k3 d9 k3 e1, PS)	58%	–
TAGCTGTGCACTCATT (sugars k3 d9 k3 e1, PS)	66%	target mRNA inhibition (0.02 µM): 3%; target mRNA inhibition (0.078 µM): 0%; target mRNA inhibition (0.313 µM): 8%; target mRNA inhibition (1.25 µM): 57%; target mRNA inhibition (5 µM): 76%
TAGCTGTGCACTCATT (sugars k3 d10 k3, PS)	40%	–
TAGGCTAAAATGGTCA (sugars k3 d10 k3, PS)	59%	–
TAGGCTTAGTGTAGAA (sugars k3 d10 k3, PS)	38%	–
TAGTAATCACAAGTAA (sugars k3 d1 m1 d8 k3, PS)	38%	–
TAGTAATCACAAGTAA (sugars kkdddddddddkekek, PS)	55%	–
TAGTATAGTTATCTTC (sugars k3 d10 k3, PS)	28%	–
TAGTCTTCAGCAAAGT (sugars k3 d9 k3 e1, PS)	36%	–
TAGTCTTCAGCAAAGT (sugars k3 d10 k3, PS)	49%	–
TAGTCTTGATGTAGTG (sugars k3 d9 k3 e1, PS)	61%	–
TAGTGCCAAACCAATG (sugars k3 d10 k3, PS)	46% and 61%	–
TAGTGCCAAACCAATG (sugars kkdddddddddkekek, PS)	66%	target mRNA inhibition (0.02 µM): 11%; target mRNA inhibition (0.078 µM): 18%; target mRNA inhibition (0.313 µM): 27%; target mRNA inhibition (1.25 µM): 53%; target mRNA inhibition (5 µM): 57%
TAGTGGACTTCATTAG (sugars k3 d9 k3 e1, PS)	22%	–
TAGTGTAAGCTGAGAG (sugars k3 d9 k3 e1, PS)	82%	target mRNA inhibition (0.02 µM): 6%; target mRNA inhibition (0.078 µM): 13%; target mRNA inhibition (0.313 µM): 52%; target mRNA inhibition (1.25 µM): 69%; target mRNA inhibition (5 µM): 79%
TAGTGTAAGCTGAGAG (sugars k3 d10 k3, PS)	75%	target mRNA inhibition (0.02 µM): 0%; target mRNA inhibition (0.078 µM): 0%; target mRNA inhibition (0.313 µM): 2%; target mRNA inhibition (1.25 µM): 48%; target mRNA inhibition (5 µM): 83%
